Test: gradient 5% acetonitrile 3 min, to 50% in 2 min, to 85% in 15 min, held 3 min, 100 µL/min
Conditions: column: Zorbax Extend-C18 2.1 x 50 mm; eluents: water / acetonitrile, 0.1% formic acid
Method in brief: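 Each retention time is based on an adduct peak selected computationally and verified by manual inspection. Measurements used HPLC–quadrupole time-of-flight mass spectrometry in positive and negative ionization mode on mixtures of ~100 pure standards. Chromatography ran on a Zorbax Extend-C18 column (2.1 × 50 mm, 1.8 μm) at 100 μL/min with water and acetonitrile, each containing 0.1% formic acid, and dead and dwell volumes of 40 μL and 900 μL.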

| SMILES | RP-LC retention time |
| --- | --- |
| Cc1cc(C)n(-c2ccc(=O)n(CCNC(=O)c3cncc(Br)c3)n2)n1 | 636 s |
| CCOc1ccc(-n2c(=O)c3sccc3n(Cc3nc(-c4ccc(F)cc4)no3)c2=O)cc1 | 982 s |
| CCn1cc(C2=CCN(C(=O)Nc3ccc(OC)cc3)CC2)c2cccnc21 | 811 s |
| Cc1ccc(S(=O)(=O)NCc2c(-c3ccccc3)nc3sc(C)nn23)cc1 | 858 s |
| CN1CCC(N2CCN(C(=O)CCC3CCCN(c4cc(NC5CC5)ncn4)C3)CC2)CC1 (configuration not stated) | 534 s |
| O=C(NCCCn1ncccc1=O)c1coc(NC(=O)c2cccs2)n1 | 589 s |
| CCn1cc(S(=O)(=O)N2C[C@@H](C(N)=O)[C@H](c3n[nH]c(C)n3)C2)cn1 | 576 s |
| CC(=O)c1ccc(Nc2c(C(=O)N3CCOCC3)cnc3nc(C)ccc23)cc1 | 568 s |
| O=C(C1CCN(S(=O)(=O)N2CCOCC2)CC1)N1CCC(Cc2nc(C3CCOCC3)no2)CC1 | 681 s |
| O=C(Nc1ccc(OC(F)(F)F)cc1)C(=O)Nc1ccccc1[N+](=O)[O-] | 1090 s |
| N#Cc1cccc(C(=O)Nc2cnn(-c3ncc(N4CCCCC4)cn3)c2)c1 | 847 s |
| O=C(Nc1ccc2c(c1)OCO2)C1CCN(c2cc(N3CCCC3)ncn2)CC1 | 642 s |
| Cc1ccc(C(C)NC(=O)C2CCN(c3nccnc3Oc3cccc(C)c3)CC2)cc1 (configuration not stated) | 1070 s |
| COc1cccc(N2CCn3c2nc2c3c(=O)n(CC(=O)O)c(=O)n2C)c1 | 702 s |
| CCOc1ccc2nc(NCc3ccco3)sc2c1 | 728 s |
| CCNS(=O)(=O)c1cccc(-c2nnc(-c3ccc(C)cc3)o2)c1 | 922 s |
| COc1ccc(NS(=O)(=O)c2c(C)c(-c3nnc(C4CCC4)o3)n(C)c2C)c(C)c1 | 929 s |
| CCOC(=O)C1=C(CN2CCN(C(C)CC)CC2)NC(=O)NC1c1ccc(OC(C)C)cc1 (configuration not stated) | 668 s |
| CCN1c2ccc(C)cc2C(=O)NC12CCN(C(=O)c1ccc(F)c(Cl)c1)CC2 | 888 s |
| COCC(=O)N1CC(c2nnc(C(C)C)o2)C2(CCOCC2)C1 (configuration not stated) | 577 s |
| COc1ccccc1-c1noc(-c2nn(-c3ccc(Cl)cc3)ccc2=O)n1 | 832 s |

| SMILES | RP-LC retention time |
| --- | --- |
| Cc1cc(C)nc(Nc2nc(C(=O)NCCOc3ccc(F)cc3)cs2)n1 | 842 s |
| CCCN(C)CC1(O)CCC2(CCN(C(=O)c3sccc3C)CC2)CC1 | 560 s |
| Cc1cc(Cl)ccc1OCC(=O)Nc1nc(-c2ccc(Br)cc2)cs1 | 1310 s |
| CCOC(=O)C1CCc2sc(NC(=O)CCc3csc4nc(C5CC5)cn34)nc21 (configuration not stated) | 599 s |
| Cc1ccc2c(c1)N(S(C)(=O)=O)CCC(C(=O)NC1CCCCCC1)O2 (configuration not stated) | 957 s |
| COC(=O)c1ccc(NC(=O)N2CCc3nc[nH]c3C2)cc1 | 591 s |
| O=C(NC1CCCN(c2ccc(=O)[nH]n2)C1)C1(S(=O)(=O)c2ccc(Cl)cc2)CC1 (configuration not stated) | 712 s |
| CC1CCN(S(=O)(=O)c2ccc3c(c2)CCCC(=O)N3CC(=O)Nc2ccc(F)cc2)CC1 | 959 s |
| COc1cccc(N2CCN(c3ccnc(SCC(=O)Nc4cc(Cl)ccc4OC)n3)CC2)c1 | 964 s |
| Cc1cccc(NC(=O)C2CCN(S(=O)(=O)c3cc(-c4noc(C5CC5)n4)cs3)CC2)c1C | 1020 s |
| O=C(c1cn(-c2cc(N3CCSCC3)ncn2)cn1)N1CCN(c2ccccc2)CC1 | 877 s |
| Cc1cccc(-n2c(=O)c3c(cc(C)n3C)n(CC(=O)Nc3cccc(Cl)c3C)c2=O)c1 | 960 s |
| CCOC(=O)c1nnc2c(-c3ccc(Br)cc3)c(C)nn2c1C | 1100 s |
| Cn1nc2c(c1NC(=O)c1ccc(Cl)s1)CCC2 | 724 s |
| CCc1nc2nccc(-c3ccc(OC)cc3F)n2n1 | 778 s |
| CCN1C=C(C(=O)OCc2ccc(Cl)cc2)C(C)=NS1(=O)=O | 1060 s |
| O=S(=O)(NCc1cccs1)c1cc(-c2noc(C3CCCC3)n2)cs1 | 1110 s |
| CCOc1ccc(-n2ccn3c(CC(C)CC(=O)NCC(C)C)nnc3c2=O)cc1 (configuration not stated) | 683 s |
| COc1ccccc1OCC(O)COC(N)=O (configuration not stated) | 650 s |
| COc1ccc(S(=O)(=O)N2CCCOC2CNC(=O)C(=O)NC2CCCCC2)cc1 (configuration not stated) | 822 s |

The remaining lines, values ahead:

| RP-LC retention time | SMILES |
| --- | --- |
| 805 s | O=C1NCCCCCCN(C(=O)Nc2ccccc2F)[C@H]2CCC[C@@H]12 |
| 926 s | CCOCCCNC(=O)C1CCCN(c2nccnc2Oc2ccc(C)cc2)C1 (configuration not stated) |
| 1330 s | CCOC(=O)c1ccccc1NC(=O)Cn1c(-c2ccccc2)nc(C)cc1=O |
| 856 s | Cc1cc(C)cc(NC(=O)C2CCN(C(=O)c3ncn4c3COC(c3ccccc3)C4)CC2)c1 (configuration not stated) |
| 648 s | Cc1cccc(NC(=O)CSc2ccc(N3CCCC(C(=O)NC4CC4)C3)nn2)c1 (configuration not stated) |
| 766 s | CCc1cc(C2CCCN2C(=O)NCc2ccccc2)on1 (configuration not stated) |
| 788 s | O=C(NC(Cc1ccccc1)c1nnc(N2CCCCCC2)o1)C1CC1 (configuration not stated) |
| 887 s | O=C([C@@H]1C[C@H](F)CN1S(=O)(=O)c1ccccc1F)N1CCc2ccccc2C1 |
| 838 s | Cc1noc(C)c1C(=O)N1CCCC1c1ccccc1Cl (configuration not stated) |
| 787 s | Cc1cc(S(=O)(=O)N2CCCC(Cn3cnc4cccnc43)C2)ccc1F (configuration not stated) |
| 710 s | O=C(NCc1ccccc1F)C1CCCN(c2nnc3c(Cl)cccn23)C1 (configuration not stated) |
| 982 s | COc1cccc(CNC(=O)C2(C)CCCN(C(=O)Nc3ccc(C)c(Cl)c3)C2)c1 (configuration not stated) |
| 920 s | Cn1cc(-c2cc3n(n2)CCCN3C(=O)CCC(=O)NCCC2=CCCCC2)c2ccccc21 |
| 976 s | O=C(NCC(c1ccccc1)c1c[nH]c2ccccc12)NC1CCCCC1 (configuration not stated) |
| 556 s | CCN1CCCC1CNC(=O)C1c2ccccc2C(=O)N(CCOC)C1c1cccs1 (configuration not stated) |
| 875 s | Cc1ccc(N2CCC(NC(=O)Nc3ccccc3C)C2=O)cc1C (configuration not stated) |
| 1010 s | Cc1cc(C)cc(N2CC(c3nc(-c4ccccc4F)no3)CC2=O)c1 (configuration not stated) |
| 767 s | Cn1c(=O)n(CC(=O)N2CCOCC2)c(=O)c2cnc(-c3ccccc3)nc21 |
| 590 s | Cc1ccc2cc(CCC(=O)NCCCN3CCCCC3C)c(=O)[nH]c2c1 (configuration not stated) |
| 735 s | Cn1nc(CNC(=O)c2ccsc2)c2ccccc21 |
| 574 s | CNC(=O)N1CCCC(Cn2cnc3cccnc32)C1 (configuration not stated) |
| 802 s | O=S(=O)(Cc1ccccc1)N1CCC(n2c(-c3ccco3)nc3cccnc32)C1 (configuration not stated) |
| 715 s | O=C(CSc1nnc(NC(=O)Cc2cccc3ccccc23)s1)NCC1CCCO1 (configuration not stated) |
| 907 s | O=C(Cn1cccc1-c1nnc(C2CCC2)o1)NCc1ccc(Cl)cc1 |
| 859 s | Cc1ccc(C)c(N2CCN(c3ccnc(SCC(=O)NCc4ccc5c(c4)OCO5)n3)CC2)c1 |
| 1110 s | COc1ccc(-c2nsc(SCC(=O)N3CCCc4ccccc43)n2)cc1 |
